In patent US12290587B2, “Anti-aging cosmetic compositions” (GIVAUDAN SA, priority 2019, dated 2025):

Test system: Normal Human Dermal Fibroblasts
Test: Mitochondrial mass (MitoTracker Green FM) in Normal Human Dermal Fibroblasts
Type: cell-based
Settings: 20 mM, insulin 100 nM
Method: Normal Human Dermal Fibroblasts were isolated from skin biopsy coming from a breast reduction surgery on a person. 10′000 cells per well were seeded in a black 96-wells plate with DMEM (Dulbecco's Modified Eagle's Medium, Gibco) supplemented with 10% FCS (Fetal Calf Serum, Biowest) and 1% antibiotics (Sigma Aldrich) and were cultured for 72 hours in an incubator at 37° C. in a humid atmosphere containing 5% CO2. Cells were then rinsed two times with PBS (Phosphate Buffer Saline) before being incubated with FCS-free DMEM medium overnight in the same incubator. On the next day, the cells were treated with (i) mannose at 20 mM, (ii) mannose-6-phosphate at 20 mM or (iii) the above-mentioned Mannose-6-Phosphate complex at 20 mM (n=3) in the presence of insulin (100 nM). After 1 hour and 48 hours of treatment, MitoTracker™ Green FM (ThermoFisher) was added directly in each well for a final concentration of 200 nM and the plate was incubated in the dark in the incubator for 15 minutes. Cells were then rinsed off two times with PBS and each well was filled with 200 μl PBS. Fluorescence intensity of MitoTracker™ Green FM was measured with a microplate reader (Excitation wavelength: 488 nm/Emission wavelength: 525 nm). In this study, the mitochondrial mass in cells was determined using the fluorescence intensity emitted by MitoTracker™ Green FM.

## O=C[C@@H](O)[C@@H](O)[C@H](O)[C@H](O)COP(=O)(O)O [mannose-6-phosphate]
1 hour treatment
  decrease of MitoTracker Green FM specific signal (mitochondrial mass): −53%
48 hours of treatment
  decrease of MitoTracker Green FM specific signal (mitochondrial mass): −60%
